This note sets out measurements from patent US11312719B2, “9-substituted amino triazolo quinazoline derivatives as adenosine receptor antagonists, pharmaceutical compositions and their use” (Merck Sharp & Dohme Corp., priority 2018, dated 2022).

One experiment addresses human A2A receptors (Homo sapiens (Human), UniProt P29274). Put plainly: A2A antagonism in cAMP cell-based assay (LANCE cAMP, HEK293). Conditions: HEK293 cells expressing human A2A receptor. The protocol: (§1) Measurement of A2A and A2B Antagonism in cAMP Cell-Based Assay
(§2) The ability of compounds to antagonize human A2A and A2B adenosine receptors was determined using a kit to measure changes in intracellular cyclic AMP levels (LANCE cAMP 384 Kit, Perkin Elmer, Cat. No. AD0264). HEK293 cells recombinantly expressing either human A2A or A2B receptors, previously frozen in Recovery Medium (Life Technologies, Cat. No. 12648-010) were thawed and diluted into stimulation buffer (HBSS (Hyclone SH 30268.01), 5 mM HEPES (Gibco 15630-106), 200 nM rolipram (Tocris, Cat. No. 0905), and 1.5% (V/v) BSA stabilizer (kit component). The cell suspension was centrifuged at 200×g for 10 min and then resuspended in stimulation buffer, supplemented with a 1:10 000 dilution of Alexa Fluor 647 anti-cAMP antibody, to a density of 6.0×10^5 cells/mL. A Labcyte Echo 550 acoustic dispenser was used to transfer up to 25 nL of test compound dissolved in DMSO into the wells of a dry Optiplate-384 plate (Perkin Elmer, Cat. No. 6008289). All subsequent liquid additions were performed using a multichannel pipettor. Next, 5 μL of the cell suspension was added to the wells of the Optiplate-384 and incubated for 30 min. at 37° C. and 5% CO2 in a humidified environment. After this time 5 μL of either 300 nM or 600 nM adenosine (Sigma Cat. No. A9251) for A2A and A2B respectively was added and incubated for 30 minutes at 37° C. and 5% CO2 in a humidified environment. At this time detection mix was prepared by combining the LANCE Eu-W8044 labeled streptavidin and Biotin-cAMP in detection buffer according to the manufacturers protocol. 10 μL of the detection mix was added to each well of the Optiplate-384 which was covered with a plate seal and incubated under ambient conditions for 2 hours prior to reading the plate using an Envision (Perkin Elmer, Waltham, Mass.) multimode plate reader. Data was normalized by defining minimal effect as stimulation in the presence of 0.25% (v/v) DMSO and maximal effect as stimulation in the presence of 1 μM ZM241385 (Cayman, Cat. No. 1036). Curve fitting of the percent effect data versus the log of compound concentration used a 4-parameter concentration response curve fitting algorithm to calculate IC50 values. Compound concentrations tested were 10,000, 3,333, 1,111, 370.4, 123.4, 41.2, 13.7, 4.6, 1.5 and 0.5 nM with 0.25% residual DMSO.

The next experiment has as its target human A2B receptors (Homo sapiens (Human), UniProt P29275). Nature of the experiment: A2B antagonism in cAMP cell-based assay (LANCE cAMP, HEK293). Conditions: HEK293 cells expressing human A2B receptor. The procedure:
as §1, §2

human A2B receptors, sequence (P29275 whole entry): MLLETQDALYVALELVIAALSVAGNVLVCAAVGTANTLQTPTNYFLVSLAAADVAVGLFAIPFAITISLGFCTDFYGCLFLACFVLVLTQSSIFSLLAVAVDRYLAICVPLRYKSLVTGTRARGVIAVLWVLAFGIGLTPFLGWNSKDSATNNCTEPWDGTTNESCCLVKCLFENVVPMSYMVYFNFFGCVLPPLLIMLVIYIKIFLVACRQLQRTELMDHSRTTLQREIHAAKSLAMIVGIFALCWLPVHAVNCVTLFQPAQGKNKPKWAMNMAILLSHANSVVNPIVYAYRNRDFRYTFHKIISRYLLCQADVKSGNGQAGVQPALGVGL
human A2A receptors, sequence (P29274 whole entry): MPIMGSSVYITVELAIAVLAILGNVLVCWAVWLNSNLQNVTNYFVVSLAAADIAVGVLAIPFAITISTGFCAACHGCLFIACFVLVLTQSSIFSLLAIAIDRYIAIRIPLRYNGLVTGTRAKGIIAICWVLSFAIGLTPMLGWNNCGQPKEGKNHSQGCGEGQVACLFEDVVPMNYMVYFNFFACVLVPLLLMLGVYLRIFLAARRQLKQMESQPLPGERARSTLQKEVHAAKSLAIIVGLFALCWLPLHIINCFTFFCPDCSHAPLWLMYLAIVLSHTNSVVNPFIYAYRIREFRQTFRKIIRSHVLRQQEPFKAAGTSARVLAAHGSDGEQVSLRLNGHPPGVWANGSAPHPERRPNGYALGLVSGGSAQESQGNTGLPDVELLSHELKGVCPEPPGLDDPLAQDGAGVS

On to `COc1cc(F)cc2c1nc(N)n1nc(C3CC(C)CN(c4cn(C(C)(C)CO)nc4C)C3)nc21` (single isomer, unassigned) [Example 176, 2-(4-((3S,5R or 3R,5S)-3-(5-amino-9-fluoro-7-methoxy-[1,2,4]triazolo[1,5-c]quinazolin-2-yl)-5-methylpiperidin-1-yl)-3-methyl-1H-pyrazol-1-yl)-2-methylpropan-1-ol], for which the IC50 against human A2A receptors was 0.9 nM; against human A2B receptors it was 10.2 nM.

`Cc1nn(C(C)(C)CO)cc1N1CC(C)CC(c2nc3c4cc(F)cc(F)c4nc(N)n3n2)C1` (single isomer, unassigned) [Example 177, 2-(4-((3R,5S or 3S,5R)-3-(5-amino-7,9-difluoro-[1,2,4]triazolo[1,5-c]quinazolin-2-yl)-5-methylpiperidin-1-yl)-3-methyl-1H-pyrazol-1-yl)-2-methylpropan-1-ol]: the values for the IC50 against human A2A receptors and on human A2B receptors were 154 nM and 3960 nM, respectively.

As for `Cc1nn(C(C)(C)CO)cc1N1CC(C)CC(c2nc3c4cc(F)cc(F)c4nc(N)n3n2)C1` (single isomer, unassigned) [Example 178, 2-(4-((3S,5R or 3R,5S)-3-(5-amino-7,9-difluoro-[1,2,4]triazolo[1,5-c]quinazolin-2-yl)-5-methylpiperidin-1-yl)-3-methyl-1H-pyrazol-1-yl)-2-methylpropan-1-ol], the IC50 came out at 0.6 nM against human A2A receptors and 11.5 nM on human A2B receptors.

As to `CC1CC(c2nc3c4cc(F)cc(F)c4nc(N)n3n2)CN(c2cnn(C(C)(C)CO)c2)C1` (single isomer, unassigned) [Example 179], the IC50 against human A2A receptors came out at 4 nM; on human A2B receptors, 335 nM.

With `CC1CC(c2nc3c4cc(F)cc(F)c4nc(N)n3n2)CN(c2cnn(C(C)(C)CO)c2)C1` (single isomer, unassigned) [Example 180, 2-(4-((3R,5R or 3S,5S)-3-(5-amino-7,9-difluoro-[1,2,4]triazolo[1,5-c]quinazolin-2-yl)-5-methylpiperidin-1-yl)-1H-pyrazol-1-yl)-2-methylpropan-1-ol], the figures for the 50% inhibitory concentration (IC50) against human A2A receptors and on human A2B receptors were 54 nM and 5340 nM, respectively.

As for `CC1CC(c2nc3c4cc(F)cc(F)c4nc(N)n3n2)CN(c2cnn(CC(C)(C)O)c2)C1` (single isomer, unassigned) [Example 181, 1-(4-((3S,5S or 3R,5R)-3-(5-amino-7,9-difluoro-[1,2,4]triazolo[1,5-c]quinazolin-2-yl)-5-methylpiperidin-1-yl)-1H-pyrazol-1-yl)-2-methylpropan-2-ol], the IC50 was 16 nM against human A2A receptors and 5100 nM on human A2B receptors.

As for `CC1CC(c2nc3c4cc(F)cc(F)c4nc(N)n3n2)CN(c2cnn(CC(C)(C)O)c2)C1` (single isomer, unassigned) [Example 182, 1-(4-((3R,5R or 3S,5S)-3-(5-amino-7,9-difluoro-[1,2,4]triazolo[1,5-c]quinazolin-2-yl)-5-methylpiperidin-1-yl)-1H-pyrazol-1-yl)-2-methylpropan-2-ol], the IC50 against human A2A receptors was 362 nM; on human A2B receptors it was above 10000 nM.

With `CCC(C)(O)Cn1cc(N2CCC[C@@H](c3nc4c5cc(F)c(OC)cc5nc(N)n4n3)C2)cn1` (single isomer, unassigned) [Example 183, (R or S)-1-(4-((R)-3-(5-amino-9-fluoro-8-methoxy-[1,2,4]triazolo[1,5-c]quinazolin-2-yl)piperidin-1-yl)-1H-pyrazol-1-yl)-2-methylbutan-2-ol], the figures for the IC50 against human A2A receptors and against human A2B receptors were 2 nM and 90.6 nM, respectively.

As to `CCC(C)(O)Cn1cc(N2CCC[C@@H](c3nc4c5cc(F)c(OC)cc5nc(N)n4n3)C2)cn1` (single isomer, unassigned) [Example 184, (S or R)-1-(4-((R)-3-(5-amino-9-fluoro-8-methoxy-[1,2,4]triazolo[1,5-c]quinazolin-2-yl)piperidin-1-yl)-1H-pyrazol-1-yl)-2-methylbutan-2-ol], the 50% inhibitory concentration (IC50) was found to be 4.9 nM on human A2A receptors and 346 nM against human A2B receptors.

In the case of `COc1cc(F)cc2c1nc(N)n1nc([C@@H]3CCCN(c4cnn(C(C)C(C)O)c4)C3)nc21` (single isomer, unassigned) [Example 185, (2S,3S or 2R,3R)-3-(4-((R)-3-(5-amino-9-fluoro-7-methoxy-[1,2,4]triazolo[1,5-c]quinazolin-2-yl)piperidin-1-yl)-1H-pyrazol-1-yl)butan-2-ol], the IC50 turned out to be 1.1 nM against human A2A receptors and 49.8 nM against human A2B receptors.

For the compound `COc1cc(F)cc2c1nc(N)n1nc([C@@H]3CCCN(c4cnn(C(C)C(C)O)c4)C3)nc21` (single isomer, unassigned) [Example 186, (2R,3R or 2S,3S)-3-(4-((R)-3-(5-amino-9-fluoro-7-methoxy-[1,2,4]triazolo[1,5-c]quinazolin-2-yl)piperidin-1-yl)-1H-pyrazol-1-yl)butan-2-ol], the half-inhibitory concentration (IC50) on human A2A receptors amounted to 1 nM; on human A2B receptors, 25.8 nM.

With `COc1cc2nc(N)n3nc([C@@H]4CCCN(c5cnn(C(C)C(C)O)c5)C4)nc3c2cc1F` (single isomer, unassigned) [Example 187, (2S,3S or 2R,3R)-3-(4-((R)-3-(5-amino-9-fluoro-8-methoxy-[1,2,4]triazolo[1,5-c]quinazolin-2-yl)piperidin-1-yl)-1H-pyrazol-1-yl)butan-2-ol], the results for the 50% inhibitory concentration (IC50) against human A2A receptors and at human A2B receptors were 2.6 nM and 95.8 nM, respectively.

Take `COc1cc2nc(N)n3nc([C@@H]4CCCN(c5cnn(C(C)C(C)O)c5)C4)nc3c2cc1F` (single isomer, unassigned) [Example 188, (2R,3R or 2S,3S)-3-(4-((R)-3-(5-amino-9-fluoro-8-methoxy-[1,2,4]triazolo[1,5-c]quinazolin-2-yl)piperidin-1-yl)-1H-pyrazol-1-yl)butan-2-ol]: the IC50 on human A2A receptors stood at 1.5 nM; against human A2B receptors it was 53.1 nM.

`COc1cc(F)cc2c1nc(N)n1nc([C@@H]3CCCN(c4cn(C(C)C(C)O)nc4C)C3)nc21` (single isomer, unassigned) [Example 189, (2S,3S or 2R,3R)-3-(4-((R)-3-(5-amino-9-fluoro-7-methoxy-[1,2,4]triazolo[1,5-c]quinazolin-2-yl)piperidin-1-yl)-3-methyl-1H-pyrazol-1-yl)butan-2-ol]: the results for the IC50 against human A2A receptors and against human A2B receptors were 0.5 nM and 53.4 nM, respectively.

Regarding `COc1cc(F)cc2c1nc(N)n1nc([C@@H]3CCCN(c4cn(C(C)C(C)O)nc4C)C3)nc21` (single isomer, unassigned) [Example 190], the IC50 worked out at 0.8 nM at human A2A receptors and 55.9 nM against human A2B receptors.

Regarding `Cc1nn(C(C)C(C)O)cc1N1CCC[C@@H](c2nc3c4cc(F)cc(F)c4nc(N)n3n2)C1` (single isomer, unassigned) [Example 191, (2S,3S or 2R,3R)-3-(4-((R)-3-(5-amino-7,9-difluoro-[1,2,4]triazolo[1,5-c]quinazolin-2-yl)piperidin-1-yl)-3-methyl-1H-pyrazol-1-yl)butan-2-ol], the IC50 against human A2A receptors was 0.9 nM; against human A2B receptors, 92.4 nM.

With `Cc1nn(C(C)C(C)O)cc1N1CCC[C@@H](c2nc3c4cc(F)cc(F)c4nc(N)n3n2)C1` (single isomer, unassigned) [Example 192, (2R,3R or 2S,3S)-3-(4-((R)-3-(5-amino-7,9-difluoro-[1,2,4]triazolo[1,5-c]quinazolin-2-yl)piperidin-1-yl)-3-methyl-1H-pyrazol-1-yl)butan-2-ol], the IC50 was 0.8 nM on human A2A receptors and 72.4 nM against human A2B receptors.

Turning to `COc1cc(F)cc2c1nc(N)n1nc([C@@H]3CCCN(c4cnn(C(C)C(C)O)c4C)C3)nc21` (single isomer, unassigned) [Example 193, (2S,3S or 2R,3R)-3-(4-((R)-3-(5-amino-9-fluoro-7-methoxy-[1,2,4]triazolo[1,5-c]quinazolin-2-yl)piperidin-1-yl)-5-methyl-1H-pyrazol-1-yl)butan-2-ol], the IC50 at human A2A receptors was determined as 1.3 nM; at human A2B receptors, 251 nM.

Turning to `COc1cc(F)cc2c1nc(N)n1nc([C@@H]3CCCN(c4cnn(C(C)C(C)O)c4C)C3)nc21` (single isomer, unassigned) [Example 194, (2R,3R or 2S,3S)-3-(4-((R)-3-(5-amino-9-fluoro-7-methoxy-[1,2,4]triazolo[1,5-c]quinazolin-2-yl)piperidin-1-yl)-5-methyl-1H-pyrazol-1-yl)butan-2-ol], the 50% inhibitory concentration (IC50) was found to be 1.7 nM against human A2A receptors and 318 nM at human A2B receptors.

A word on the IC50: it is the point on the concentration scale where inhibition reaches its midpoint.
